Measured values: patent US20080176936A1, “Classes of Compounds that Interact with Integrins” (priority 2005, published 2008)

Biological target: T1, αllbβ3 integrin (Homo sapiens, UniProt P05106+P08514)
T1 construct: Human platelet membrane preparations were used as a source of αllbβ3 integrin; from tissue; host or cells: human platelets (membrane preparation)
Experiment: ELISA: inhibition of binding of αllbβ3 integrin membrane preparation to coated extracellular matrix protein
Conditions: substrate fibrinogen, human platelet membrane preparation
Procedure: (§1) An ELISA assay based on the published method of Bethert et al., 2000, J Biol Chem 275, 33308-23, was employed.
(§2) Briefly, appropriate microtitre plates were coated with either Fibrinogen or Vitronectin (10 μg/well). These extracellular matrix proteins contain the RGD amino acid sequence that is recognized by αllbβ3 integrin. Human platelet membrane preparations were used as a source of αllbβ3 integrin and the cell line WM-115 was used as a source of αVβ3 integrin. Inhibition of the binding of αllbβ3 integrin containing membrane preparations to the extracellular matrix protein was determined by pre-incubating the platelet membrane preparation with test or control compounds. The binding of the αllbβ3 integrin containing membrane was the quantitated by using a rabbit anti-integrinβ3 antibody, a horse radish peroxidase coupled second antibody and a standard colorimetric detection system.

T1 sequence (P08514 32-887 limits assumed): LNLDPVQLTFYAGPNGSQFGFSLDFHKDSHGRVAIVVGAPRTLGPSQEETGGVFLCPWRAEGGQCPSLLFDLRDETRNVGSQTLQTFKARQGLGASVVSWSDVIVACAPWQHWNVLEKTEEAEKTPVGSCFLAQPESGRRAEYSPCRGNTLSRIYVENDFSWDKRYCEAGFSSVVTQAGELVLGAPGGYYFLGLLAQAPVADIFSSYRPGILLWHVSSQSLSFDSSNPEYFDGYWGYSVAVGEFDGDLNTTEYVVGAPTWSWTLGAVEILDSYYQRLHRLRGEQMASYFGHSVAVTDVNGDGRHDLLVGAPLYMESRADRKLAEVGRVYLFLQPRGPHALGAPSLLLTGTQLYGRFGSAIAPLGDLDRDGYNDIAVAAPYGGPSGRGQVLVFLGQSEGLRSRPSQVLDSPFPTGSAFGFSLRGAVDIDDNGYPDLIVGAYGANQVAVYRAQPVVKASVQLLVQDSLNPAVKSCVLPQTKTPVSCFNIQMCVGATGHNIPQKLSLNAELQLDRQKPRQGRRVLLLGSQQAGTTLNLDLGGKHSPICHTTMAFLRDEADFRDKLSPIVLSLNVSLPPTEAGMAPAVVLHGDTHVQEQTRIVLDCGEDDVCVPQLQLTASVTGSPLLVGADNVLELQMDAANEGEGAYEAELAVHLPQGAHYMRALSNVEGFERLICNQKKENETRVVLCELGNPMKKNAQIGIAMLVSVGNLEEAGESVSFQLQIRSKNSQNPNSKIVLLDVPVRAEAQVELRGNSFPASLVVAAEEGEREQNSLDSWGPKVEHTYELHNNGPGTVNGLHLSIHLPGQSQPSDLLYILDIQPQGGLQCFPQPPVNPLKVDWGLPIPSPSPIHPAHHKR
T1 sequence (P08514 891-1039 partner limits assumed): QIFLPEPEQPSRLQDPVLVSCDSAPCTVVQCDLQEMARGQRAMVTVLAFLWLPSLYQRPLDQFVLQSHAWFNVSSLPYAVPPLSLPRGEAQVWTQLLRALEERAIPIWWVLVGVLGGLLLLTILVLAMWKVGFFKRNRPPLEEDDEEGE
T1 sequence (P05106 27-788): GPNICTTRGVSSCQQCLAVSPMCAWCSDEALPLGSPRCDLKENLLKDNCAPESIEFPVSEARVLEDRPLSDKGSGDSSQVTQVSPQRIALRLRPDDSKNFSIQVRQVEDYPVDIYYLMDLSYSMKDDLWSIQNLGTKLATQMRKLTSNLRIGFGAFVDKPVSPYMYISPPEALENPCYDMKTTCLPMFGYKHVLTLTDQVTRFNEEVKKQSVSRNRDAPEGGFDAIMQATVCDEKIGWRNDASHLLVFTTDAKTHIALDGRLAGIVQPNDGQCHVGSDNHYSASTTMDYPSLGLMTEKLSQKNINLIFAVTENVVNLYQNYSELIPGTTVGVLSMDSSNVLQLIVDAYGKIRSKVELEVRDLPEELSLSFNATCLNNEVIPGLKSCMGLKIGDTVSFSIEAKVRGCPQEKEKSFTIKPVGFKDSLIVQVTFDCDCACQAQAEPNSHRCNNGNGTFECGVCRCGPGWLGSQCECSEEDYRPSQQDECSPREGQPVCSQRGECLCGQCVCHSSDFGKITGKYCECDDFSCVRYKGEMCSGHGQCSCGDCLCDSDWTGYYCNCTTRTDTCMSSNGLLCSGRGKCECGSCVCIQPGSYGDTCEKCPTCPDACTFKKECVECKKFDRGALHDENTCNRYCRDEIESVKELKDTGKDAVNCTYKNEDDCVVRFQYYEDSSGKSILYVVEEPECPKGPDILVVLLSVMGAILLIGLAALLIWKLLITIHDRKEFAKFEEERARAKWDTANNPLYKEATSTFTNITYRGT

Row | Compound | INHIBITION @ 250 uM RECEPTOR allBb3 SUBSTRATE FIBRINOGEN
1 | Nc1cccc(C(=O)N[C@H]2C(O)O[C@H](COCc3ccc(C(=O)O)cc3)[C@@H](O)[C@@H]2OCc2ccc(Br)cc2)c1 (single isomer, unassigned) [Compound 42] | + (36% to 60% inhibition at 250 micromolar)
2 | CCOC1O[C@H](COCc2cccc(N)c2)[C@@H](O)[C@H](OCc2ccc(Br)cc2)[C@H]1NC(=O)CCC(=O)O (single isomer, unassigned) [Compound 44] | ++ (61% to 80% inhibition at 250 micromolar)
3 | CCOC1O[C@H](COCc2cccc(N)c2)[C@@H](O)[C@H](OCc2ccc(Br)cc2)[C@H]1NC(=O)CCC(=O)O (single isomer, unassigned) [Compound 45] | ++ (61% to 80% inhibition at 250 micromolar)
4 | Nc1cccc(COC[C@H]2OC(O)[C@H](NC(=O)CCC(=O)O)[C@@H](OCc3ccc(Br)cc3)[C@@H]2O)c1 (single isomer, unassigned) [Compound 46] | + (36% to 60% inhibition at 250 micromolar)
5 | Nc1cccc(COC[C@H]2OC(O)[C@H](NC(=O)CCC(=O)O)[C@@H](OCc3ccc(Br)cc3)[C@@H]2O)c1 (single isomer, unassigned) [Compound 47] | + (36% to 60% inhibition at 250 micromolar)
6 | CCOC1O[C@H](COCc2ccccc2)[C@@H](O)[C@H](OCC(=O)O)[C@H]1NC(=O)CCNC(=N)N (single isomer, unassigned) [Compound 48] | ++ (61% to 80% inhibition at 250 micromolar)
7 | CCOC1O[C@H](COCc2ccccc2)[C@@H](O)[C@H](OCC(=O)O)[C@H]1NC(=O)CCNC(=N)N (single isomer, unassigned) [Compound 49] | ++ (61% to 80% inhibition at 250 micromolar)
8 | CCOC1O[C@H](COCc2ccc(Br)cc2)[C@@H](O)[C@H](OCC(=O)O)[C@H]1NC(=O)CCNC(=N)N (single isomer, unassigned) [Compound 50] | + (36% to 60% inhibition at 250 micromolar)
9 | CCOC1O[C@H](COCc2ccc(Br)cc2)[C@@H](O)[C@H](OCC(=O)O)[C@H]1NC(=O)CCNC(=N)N (single isomer, unassigned) [Compound 51] | ++ (61% to 80% inhibition at 250 micromolar)
10 | CCOC1O[C@H](COCc2ccc(Br)cc2)[C@@H](O)[C@H](OCC(=O)O)[C@H]1NC(=O)CCNC(=N)N (single isomer, unassigned) [Compound 52] | + (36% to 60% inhibition at 250 micromolar)
11 | CCOC1O[C@H](COCc2cccc(N)c2)[C@@H](O)[C@H](OCC(=O)O)[C@H]1NC(=O)c1ccccc1 (single isomer, unassigned) [Compound 54] | − (0% to 35% inhibition at 250 micromolar)

Same assay, conditions: substrate vitronectin, human platelet membrane preparation

Row | Compound | INHIBITION 250 uM RECEPTOR allBb3 SUBSTRATE VITRONECTIN
12 | Nc1cccc(C(=O)N[C@H]2C(O)O[C@H](COCc3ccc(C(=O)O)cc3)[C@@H](O)[C@@H]2OCc2ccc(Br)cc2)c1 (single isomer, unassigned) [Compound 42] | +++ (81% to 100% inhibition at 250 micromolar)
13 | CCOC1O[C@H](COCc2cccc(N)c2)[C@@H](O)[C@H](OCc2ccc(Br)cc2)[C@H]1NC(=O)CCC(=O)O (single isomer, unassigned) [Compound 44] | − (0% to 35% inhibition at 250 micromolar)
14 | CCOC1O[C@H](COCc2cccc(N)c2)[C@@H](O)[C@H](OCc2ccc(Br)cc2)[C@H]1NC(=O)CCC(=O)O (single isomer, unassigned) [Compound 45] | +++ (81% to 100% inhibition at 250 micromolar)
15 | Nc1cccc(COC[C@H]2OC(O)[C@H](NC(=O)CCC(=O)O)[C@@H](OCc3ccc(Br)cc3)[C@@H]2O)c1 (single isomer, unassigned) [Compound 46] | +++ (81% to 100% inhibition at 250 micromolar)
16 | Nc1cccc(COC[C@H]2OC(O)[C@H](NC(=O)CCC(=O)O)[C@@H](OCc3ccc(Br)cc3)[C@@H]2O)c1 (single isomer, unassigned) [Compound 47] | +++ (81% to 100% inhibition at 250 micromolar)
17 | CCOC1O[C@H](COCc2ccccc2)[C@@H](O)[C@H](OCC(=O)O)[C@H]1NC(=O)CCNC(=N)N (single isomer, unassigned) [Compound 48] | +++ (81% to 100% inhibition at 250 micromolar)
18 | CCOC1O[C@H](COCc2ccccc2)[C@@H](O)[C@H](OCC(=O)O)[C@H]1NC(=O)CCNC(=N)N (single isomer, unassigned) [Compound 49] | +++ (81% to 100% inhibition at 250 micromolar)
19 | CCOC1O[C@H](COCc2ccc(Br)cc2)[C@@H](O)[C@H](OCC(=O)O)[C@H]1NC(=O)CCNC(=N)N (single isomer, unassigned) [Compound 50] | +++ (81% to 100% inhibition at 250 micromolar)
20 | CCOC1O[C@H](COCc2ccc(Br)cc2)[C@@H](O)[C@H](OCC(=O)O)[C@H]1NC(=O)CCNC(=N)N (single isomer, unassigned) [Compound 51] | +++ (81% to 100% inhibition at 250 micromolar)
21 | CCOC1O[C@H](COCc2ccc(Br)cc2)[C@@H](O)[C@H](OCC(=O)O)[C@H]1NC(=O)CCNC(=N)N (single isomer, unassigned) [Compound 52] | ++ (61% to 80% inhibition at 250 micromolar)
22 | CCOC1O[C@H](COCc2cccc(N)c2)[C@@H](O)[C@H](OCC(=O)O)[C@H]1NC(=O)c1ccccc1 (single isomer, unassigned) [Compound 54] | ++ (61% to 80% inhibition at 250 micromolar)

Biological target: T2, αVβ3 integrin (Homo sapiens, UniProt P05106+P06756)
T2 construct: the cell line WM-115 was used as a source of αVβ3 integrin; endogenous in cells; host or cells: WM-115 cell line
T2 sequence (P06756 31-889 limits assumed): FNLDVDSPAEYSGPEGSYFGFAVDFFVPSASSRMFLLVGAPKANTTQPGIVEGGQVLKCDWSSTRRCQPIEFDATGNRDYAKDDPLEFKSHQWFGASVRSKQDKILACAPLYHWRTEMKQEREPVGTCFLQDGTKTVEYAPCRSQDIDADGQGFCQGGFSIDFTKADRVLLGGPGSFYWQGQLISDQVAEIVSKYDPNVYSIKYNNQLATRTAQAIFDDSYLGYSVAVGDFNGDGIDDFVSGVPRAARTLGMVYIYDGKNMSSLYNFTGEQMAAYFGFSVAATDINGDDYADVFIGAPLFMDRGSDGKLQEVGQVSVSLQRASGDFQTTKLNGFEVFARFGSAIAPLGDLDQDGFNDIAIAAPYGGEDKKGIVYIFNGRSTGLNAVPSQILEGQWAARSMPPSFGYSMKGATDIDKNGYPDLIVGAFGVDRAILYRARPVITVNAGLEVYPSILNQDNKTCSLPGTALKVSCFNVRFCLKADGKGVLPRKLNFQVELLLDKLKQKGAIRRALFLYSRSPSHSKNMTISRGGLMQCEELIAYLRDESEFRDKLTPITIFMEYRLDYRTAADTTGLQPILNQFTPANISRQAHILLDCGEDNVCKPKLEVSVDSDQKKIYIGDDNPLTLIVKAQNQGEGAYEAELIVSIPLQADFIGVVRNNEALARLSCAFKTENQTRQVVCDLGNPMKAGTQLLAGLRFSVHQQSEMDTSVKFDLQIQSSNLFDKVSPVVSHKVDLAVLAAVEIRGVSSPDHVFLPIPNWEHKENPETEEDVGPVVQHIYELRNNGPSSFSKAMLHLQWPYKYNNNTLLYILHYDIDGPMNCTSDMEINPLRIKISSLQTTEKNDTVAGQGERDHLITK
T2 sequence (P06756 891-1048 partner limits assumed): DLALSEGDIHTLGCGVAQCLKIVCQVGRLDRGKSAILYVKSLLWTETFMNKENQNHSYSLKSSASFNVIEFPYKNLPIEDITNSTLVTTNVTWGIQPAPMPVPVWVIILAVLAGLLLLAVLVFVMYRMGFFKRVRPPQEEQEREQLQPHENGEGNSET
T2 sequence (P05106 27-788): as the sequence (P05106 27-788) above
Experiment: ELISA: inhibition of binding of αVβ3 integrin (source WM-115 cell line) to coated extracellular matrix protein
Conditions: WM-115 cell line as integrin source
Procedure: as §1, §2

Row | Compound | INHIBITION 250 uM RECEPTOR aVb3 SUBSTRATE FIBRINOGEN
23 | Nc1cccc(C(=O)N[C@H]2C(O)O[C@H](COCc3ccc(C(=O)O)cc3)[C@@H](O)[C@@H]2OCc2ccc(Br)cc2)c1 (single isomer, unassigned) [Compound 42] | − (0% to 35% inhibition at 250 micromolar)
24 | CCOC1O[C@H](COCc2cccc(N)c2)[C@@H](O)[C@H](OCc2ccc(Br)cc2)[C@H]1NC(=O)CCC(=O)O (single isomer, unassigned) [Compound 44] | + (36% to 60% inhibition at 250 micromolar)
25 | CCOC1O[C@H](COCc2cccc(N)c2)[C@@H](O)[C@H](OCc2ccc(Br)cc2)[C@H]1NC(=O)CCC(=O)O (single isomer, unassigned) [Compound 45] | +++ (81% to 100% inhibition at 250 micromolar)
26 | Nc1cccc(COC[C@H]2OC(O)[C@H](NC(=O)CCC(=O)O)[C@@H](OCc3ccc(Br)cc3)[C@@H]2O)c1 (single isomer, unassigned) [Compound 46] | +++ (81% to 100% inhibition at 250 micromolar)
27 | Nc1cccc(COC[C@H]2OC(O)[C@H](NC(=O)CCC(=O)O)[C@@H](OCc3ccc(Br)cc3)[C@@H]2O)c1 (single isomer, unassigned) [Compound 47] | − (0% to 35% inhibition at 250 micromolar)
28 | CCOC1O[C@H](COCc2ccccc2)[C@@H](O)[C@H](OCC(=O)O)[C@H]1NC(=O)CCNC(=N)N (single isomer, unassigned) [Compound 48] | +++ (81% to 100% inhibition at 250 micromolar)
29 | CCOC1O[C@H](COCc2ccccc2)[C@@H](O)[C@H](OCC(=O)O)[C@H]1NC(=O)CCNC(=N)N (single isomer, unassigned) [Compound 49] | +++ (81% to 100% inhibition at 250 micromolar)
30 | CCOC1O[C@H](COCc2ccc(Br)cc2)[C@@H](O)[C@H](OCC(=O)O)[C@H]1NC(=O)CCNC(=N)N (single isomer, unassigned) [Compound 50] | +++ (81% to 100% inhibition at 250 micromolar)
31 | CCOC1O[C@H](COCc2ccc(Br)cc2)[C@@H](O)[C@H](OCC(=O)O)[C@H]1NC(=O)CCNC(=N)N (single isomer, unassigned) [Compound 51] | ++ (61% to 80% inhibition at 250 micromolar)
32 | CCOC1O[C@H](COCc2ccc(Br)cc2)[C@@H](O)[C@H](OCC(=O)O)[C@H]1NC(=O)CCNC(=N)N (single isomer, unassigned) [Compound 52] | +++ (81% to 100% inhibition at 250 micromolar)
33 | CCOC1O[C@H](COCc2cccc(N)c2)[C@@H](O)[C@H](OCC(=O)O)[C@H]1NC(=O)c1ccccc1 (single isomer, unassigned) [Compound 54] | + (36% to 60% inhibition at 250 micromolar)
